Assay results as given in ChEMBL document CHEMBL3044921, “Synthesis, characterization, and SAR studies of new (1H-indol-3-yl)alkyl-3-(1H-indol-3-yl)propanamide derivatives as possible antimicrobial and antitubercular agents” (2013).
In brackets after ≈: the same amount, converted by molar mass.

Tests used:
Aspergillus fumigatus [1] = experiment: Antifungal activity against Aspergillus fumigatus NCIM 902 assessed as growth inhibition after 3 to 4 days by serial plate dilution method; format: functional
Candida albicans [2] = experiment: Antifungal activity against Candida albicans assessed as growth inhibition after 3 to 4 days by serial plate dilution method; format: functional
[3] = test system: Mycolicibacterium smegmatis; experiment: Antitubercular activity against Mycobacterium smegmatis ATCC 19420 assessed as growth inhibition at 1 to 100 ug/mL after 7 days by resazurin reduction test; format: functional; conditions: ATCC 19420, 168 h
[4] = test system: Trichophyton mentagrophytes; experiment: Antifungal activity against Trichophyton mentagrophytes assessed as growth inhibition at […] to […] ug/ml after 3 to 4 days by agar well diffusion method; format: functional
Escherichia coli [5] = experiment: Antibacterial activity against Escherichia coli […] assessed as growth inhibition after 16 to 18 hr by serial plate dilution method; format: functional
Staphylococcus aureus [6] = format: functional, ATCC 25923
Description: Antibacterial activity against Staphylococcus aureus ATCC 25923 assessed as growth inhibition at 1.56 to 25 ug/ml after 3 to 4 days by agar well diffusion method

Candida albicans [7] = experiment: Antifungal activity against Candida albicans assessed as growth inhibition at […] to […] ug/ml after 3 to 4 days by agar well diffusion method; format: functional
Klebsiella pneumoniae [8] = experiment: Antibacterial activity against Klebsiella pneumoniae assessed as growth inhibition after 16 to 18 hr by serial plate dilution method; format: functional
Talaromyces marneffei [9] = experiment: Antifungal activity against Talaromyces marneffei assessed as growth inhibition at […] to […] ug/ml after 3 to 4 days by agar well diffusion method; format: functional
Aspergillus flavus [10] = experiment: Antifungal activity against Aspergillus flavus NCIM 524 assessed as growth inhibition at […] to […] ug/ml after 3 to 4 days by agar well diffusion method; format: functional
Pseudomonas aeruginosa [11] = experiment: Antibacterial activity against Pseudomonas aeruginosa ATCC 27853 assessed as growth inhibition after 16 to 18 hr by serial plate dilution method; format: functional
[12] = test system: Trichophyton mentagrophytes; experiment: Antifungal activity against Trichophyton mentagrophytes assessed as growth inhibition after 3 to 4 days by serial plate dilution method; format: functional
Klebsiella pneumoniae [13] = format: functional
Description: Antibacterial activity against Klebsiella pneumoniae assessed as growth inhibition at 1.56 to 25 ug/ml after 3 to 4 days by agar well diffusion method

Talaromyces marneffei [14] = experiment: Antifungal activity against Talaromyces marneffei assessed as growth inhibition after 3 to 4 days by serial plate dilution method; format: functional
[15] = test system: Mycobacterium tuberculosis; experiment: Antitubercular activity against Mycobacterium tuberculosis H37Rv ATCC 27294 assessed as growth inhibition at 1 to 100 ug/mL after 7 days by resazurin reduction test; format: functional; conditions: for MIC: Mycobacterium tuberculosis, H37Rv ATCC 27294, 168 h
Streptococcus pyogenes [16] = experiment: Antibacterial activity against Streptococcus pyogenes assessed as growth inhibition after 16 to 18 hr by serial plate dilution method; format: functional
Pseudomonas aeruginosa [17] = format: functional, ATCC 27853
Description: Antibacterial activity against Pseudomonas aeruginosa ATCC 27853 assessed as growth inhibition at 1.56 to 25 ug/ml after 3 to 4 days by agar well diffusion method

Escherichia coli [18] = format: functional, ATCC 24922
Description: Antibacterial activity against Escherichia coli ATCC 24922 assessed as growth inhibition at 1.56 to 25 ug/ml after 3 to 4 days by agar well diffusion method

[19] = test system: Mycolicibacterium smegmatis; experiment: Antitubercular activity against Mycobacterium smegmatis ATCC 19420 assessed as growth inhibition at 0.3125 to 5 ug/mL after 7 days by resazurin reduction test; format: functional; conditions: ATCC 19420, 168 h
Staphylococcus aureus [20] = experiment: Antibacterial activity against Staphylococcus aureus ATCC 25923 assessed as growth inhibition after 16 to 18 hr by serial plate dilution method; format: functional
Aspergillus fumigatus [21] = experiment: Antifungal activity against Aspergillus fumigatus NCIM 902 assessed as growth inhibition at […] to […] ug/ml after 3 to 4 days by agar well diffusion method; format: functional
[22] = test system: Mycolicibacterium fortuitum; experiment: Antitubercular activity against Mycobacterium fortuitum ATCC 19542 assessed as growth inhibition at 1 to 100 ug/mL after 7 days by resazurin reduction test; format: functional; conditions: ATCC 19542, 168 h
Streptococcus pyogenes [23] = format: functional
Description: Antibacterial activity against Streptococcus pyogenes assessed as growth inhibition at 1.56 to 25 ug/ml after 3 to 4 days by agar well diffusion method

Aspergillus flavus [24] = experiment: Antifungal activity against Aspergillus flavus NCIM 524 assessed as growth inhibition after 3 to 4 days by serial plate dilution method; format: functional
[25] = test system: Mycolicibacterium fortuitum; experiment: Antitubercular activity against Mycobacterium fortuitum ATCC 19542 assessed as growth inhibition at 0.3125 to 5 ug/mL after 7 days by resazurin reduction test; format: functional; conditions: ATCC 19542, 168 h
[26] = test system: Mycobacterium tuberculosis; experiment: Antitubercular activity against Mycobacterium tuberculosis H37Rv ATCC 27294 assessed as growth inhibition at 0.3125 to 5 ug/mL after 7 days by resazurin reduction test; format: functional; conditions: H37Rv ATCC 27294, 168 h

SMILES | MIC (Aspergillus fumigatus [1]) [µg/mL] | MIC (Candida albicans [2]) [µg/mL] | MIC [3] [µg/mL] | diameter of the inhibition zone (DIZ) [4] [mm] | MIC (Escherichia coli [5]) [µg/mL] | diameter of the inhibition zone (DIZ) (Staphylococcus aureus [6]) [mm] | diameter of the inhibition zone (DIZ) (Candida albicans [7]) [mm] | MIC (Klebsiella pneumoniae [8]) [µg/mL] | diameter of the inhibition zone (DIZ) (Talaromyces marneffei [9]) [mm] | diameter of the inhibition zone (DIZ) (Aspergillus flavus [10]) [mm] | MIC (Pseudomonas aeruginosa [11]) [µg/mL] | MIC [12] [µg/mL] | diameter of the inhibition zone (DIZ) (Klebsiella pneumoniae [13]) [mm] | MIC (Talaromyces marneffei [14]) [µg/mL] | growth inhibition (GI) [15] [%] | MIC [15] [µg/mL] | MIC (Streptococcus pyogenes [16]) [µg/mL] | diameter of the inhibition zone (DIZ) (Pseudomonas aeruginosa [17]) [mm] | diameter of the inhibition zone (DIZ) (Escherichia coli [18]) [mm] | MIC [19] [µg/mL] | other results
Cn1cc(CCC(=O)NCc2c[nH]c3ccc(Cl)cc23)c2cc(Cl)ccc21 | 6.25 (≈ 15.6 µM) | 6.25 (≈ 15.6 µM) | 10 (≈ 25 µM) | 16 | 6.25 (≈ 15.6 µM) | 16 | 16 | 6.25 (≈ 15.6 µM) | 16 | 16 | 25 (≈ 62.5 µM) | 6.25 (≈ 15.6 µM) | 16 | 6.25 (≈ 15.6 µM) | 95 | 1 (≈ 2.5 µM) | 6.25 (≈ 15.6 µM) | <10 | 16 | 10 (≈ 25 µM) | MIC (Staphylococcus aureus [20]): 6.25 µg/mL (≈ 15.6 µM); diameter of the inhibition zone (DIZ) (Aspergillus fumigatus [21]): 16 mm; MIC [22]: 10 µg/mL (≈ 25 µM); diameter of the inhibition zone (DIZ) (Streptococcus pyogenes [23]): 16 mm; MIC (Aspergillus flavus [24]): 6.25 µg/mL (≈ 15.6 µM); MIC [25]: 10 µg/mL (≈ 25 µM); MIC [26]: 0.625 µg/mL (≈ 1.56 µM)
Cc1[nH]c2ccc(OC(F)(F)F)cc2c1CCCNC(=O)CCc1c[nH]c2ccc(Cl)cc12 | 6.25 (≈ 13.1 µM) | 6.25 (≈ 13.1 µM) | 10 (≈ 20.9 µM) | 16 | 6.25 (≈ 13.1 µM) | 16 | 16 | 6.25 (≈ 13.1 µM) | 16 | 16 | 6.25 (≈ 13.1 µM) | 6.25 (≈ 13.1 µM) | 16 | 6.25 (≈ 13.1 µM) | <90 | 10 (≈ 20.9 µM) | 6.25 (≈ 13.1 µM) | 16 | 16 | 10 (≈ 20.9 µM) | MIC (Staphylococcus aureus [20]): 6.25 µg/mL (≈ 13.1 µM); diameter of the inhibition zone (DIZ) (Aspergillus fumigatus [21]): 16 mm; MIC [22]: 10 µg/mL (≈ 20.9 µM); diameter of the inhibition zone (DIZ) (Streptococcus pyogenes [23]): 16 mm; MIC (Aspergillus flavus [24]): 6.25 µg/mL (≈ 13.1 µM); MIC [25]: 10 µg/mL (≈ 20.9 µM); MIC [26]: 2.5 µg/mL (≈ 5.23 µM)
O=C(CCc1c[nH]c2ccc(Cl)cc12)NCc1c[nH]c2ccc(OC(F)(F)F)cc12 | 6.25 (≈ 14.3 µM) | 6.25 (≈ 14.3 µM) | 1 (≈ 2.29 µM) | 16 | 6.25 (≈ 14.3 µM) | 16 | 16 | 6.25 (≈ 14.3 µM) | 16 | 16 | 6.25 (≈ 14.3 µM) | 6.25 (≈ 14.3 µM) | 16 | 6.25 (≈ 14.3 µM) | 90 | 1 (≈ 2.29 µM) | 12.5 (≈ 28.7 µM) | 16 | 16 | 1.25 (≈ 2.87 µM) | MIC (Staphylococcus aureus [20]): 6.25 µg/mL (≈ 14.3 µM); diameter of the inhibition zone (DIZ) (Aspergillus fumigatus [21]): 16 mm; MIC [22]: 10 µg/mL (≈ 22.9 µM); diameter of the inhibition zone (DIZ) (Streptococcus pyogenes [23]): 11 mm; MIC (Aspergillus flavus [24]): 6.25 µg/mL (≈ 14.3 µM); MIC [25]: 1.25 µg/mL (≈ 2.87 µM); MIC [26]: 1.25 µg/mL (≈ 2.87 µM)
Cn1cc(CCC(=O)NCc2cn(C)c3ccc(Cl)cc23)c2cc(Cl)ccc21 | 25 (≈ 60.3 µM) | 25 (≈ 60.3 µM) | > 100 | <10 | 12.5 (≈ 30.2 µM) | <10 | <10 | 12.5 (≈ 30.2 µM) | 11 | <10 | 12.5 (≈ 30.2 µM) | 25 (≈ 60.3 µM) | 11 | 12.5 (≈ 30.2 µM) | <90 | > 100 | 25 (≈ 60.3 µM) | 11 | 11 | 10 (≈ 24.1 µM) | MIC (Staphylococcus aureus [20]): 25 µg/mL (≈ 60.3 µM); diameter of the inhibition zone (DIZ) (Aspergillus fumigatus [21]): <10 mm; MIC [22]: 10 µg/mL (≈ 24.1 µM); diameter of the inhibition zone (DIZ) (Streptococcus pyogenes [23]): <10 mm; MIC (Aspergillus flavus [24]): 25 µg/mL (≈ 60.3 µM); MIC [25]: 10 µg/mL (≈ 24.1 µM); MIC [26]: 10 µg/mL (≈ 24.1 µM)
Cn1cc(CCCNC(=O)CCc2c[nH]c3ccc(Cl)cc23)c2cc(OC(F)(F)F)ccc21 | 25 (≈ 52.3 µM) | 25 (≈ 52.3 µM) | 10 (≈ 20.9 µM) | <10 | 6.25 (≈ 13.1 µM) | 16 | <10 | 6.25 (≈ 13.1 µM) | 11 | <10 | 6.25 (≈ 13.1 µM) | 25 (≈ 52.3 µM) | 16 | 12.5 (≈ 26.2 µM) | 95 | 1 (≈ 2.09 µM) | 6.25 (≈ 13.1 µM) | 16 | 16 | 10 (≈ 20.9 µM) | MIC (Staphylococcus aureus [20]): 6.25 µg/mL (≈ 13.1 µM); diameter of the inhibition zone (DIZ) (Aspergillus fumigatus [21]): <10 mm; MIC [22]: 10 µg/mL (≈ 20.9 µM); diameter of the inhibition zone (DIZ) (Streptococcus pyogenes [23]): 16 mm; MIC (Aspergillus flavus [24]): 25 µg/mL (≈ 52.3 µM); MIC [25]: 10 µg/mL (≈ 20.9 µM); MIC [26]: 0.625 µg/mL (≈ 1.31 µM)
Cc1[nH]c2ccc(OC(F)(F)F)cc2c1CNC(=O)CCc1cn(C)c2ccc(Cl)cc12 | 25 (≈ 53.9 µM) | 12.5 (≈ 26.9 µM) | 1 (≈ 2.16 µM) | <10 | 6.25 (≈ 13.5 µM) | <10 | 11 | 6.25 (≈ 13.5 µM) | <10 | <10 | 25 (≈ 53.9 µM) | 25 (≈ 53.9 µM) | 16 | 25 (≈ 53.9 µM) | 90 | 1 (≈ 2.16 µM) | 12.5 (≈ 26.9 µM) | <10 | 16 | 1.25 (≈ 2.69 µM) | MIC (Staphylococcus aureus [20]): 25 µg/mL (≈ 53.9 µM); diameter of the inhibition zone (DIZ) (Aspergillus fumigatus [21]): <10 mm; MIC [22]: 10 µg/mL (≈ 21.6 µM); diameter of the inhibition zone (DIZ) (Streptococcus pyogenes [23]): 11 mm; MIC (Aspergillus flavus [24]): 25 µg/mL (≈ 53.9 µM); MIC [25]: 1.25 µg/mL (≈ 2.69 µM); MIC [26]: 1.25 µg/mL (≈ 2.69 µM)
